Test results reported in patent US20250057849A1, “ANTIVIRAL COMPOSITION COMPRISING NUCLEOSIDE ANALOGUES DERIVED FROM NUCLEIC ACID AND PHARMACEUTICALLY ACCEPTABLE SALT THEREOF” (CJ CheilJedang Corporation, priority 2021, published 2025).
Where two headings read alike, the source gives them in different places.

Key:
[1] = test system: MDCK cell line; assay: Cytotoxicity, MDCK cell tests; details: read-out: CC50 (Table 10, CPV); cytotoxicity
[2] = Cytotoxicity, MDCK cell tests; details: dog, MDCK cells
[3] = test system: Vero cell line; details: monkey
[4] = Cytotoxicity, PK15 cell test; details: pig, PK15 cells
[5] = test system: Swine Influenza virus (SIV); assay: organism not typed; format: cell-based; details: for SI (selectivity index), SIV: CC50/IC50; for IC50: MDCK, 96 h, read-out: SIV infection inhibition concentration IC50
[6] = Cytotoxicity (WST-1 / DAPI staining), PRRSV test cells; details: monkey, Marc-145 cells (monkey kidney)
[7] = test system: BRV; assay: BRV infection inhibition in MDBK cells (RT-qPCR); format: cell-based, Bovine Rotavirus; details: for SI (selectivity index), BRV: CC50/IC50; for IC50: Rotavirus A, 96 h, MDBK cells, 200 TCID50/well BRV, after 4 days, read-out: BRV infection inhibition concentration IC50
Procedure: The next day, BRV of 200 TCID50/well and inosine, xanthosine and guanosine in the dialdehyde and acyclic diol forms were treated to the cells simultaneously, and after 4 days, using commercialized Viral gene (DNA/RNA) extraction kit (iNtRON, 101410754), RNA was isolated.
For the isolated RNA, using BRV-specific primers (F-[…] , R-[…] ) and realtime RT-qPCR experimental method (95° C., 10 minutes 1 cycle, 95° C., 15 seconds, 60° C., 15 seconds, 72° C., 20 seconds 40 cycles), the antiviral efficacy of the materials was confirmed.

[8] = test system: PRRSV (NA type, VR-2332 strain); assay: PRRSV infection inhibition in Marc-145 cells (immunofluorescence staining); format: cell-based, Porcine Reproductive and Respiratory Syndrome virus; details: for SI (selectivity index), PRRSV: CC50/IC50; for IC50: Porcine reproductive and respiratory syndrome virus, MARC145, 72 h, Marc-145 cells, 100 TCID50/ml PRRSV, three days after treatment, read-out: PRRSV infection inhibition concentration IC50
[9] = test system: PCV2; assay: PCV2 infection inhibition in PK15 cells (qPCR); format: cell-based, Porcine Circovirus Type 2; details: for SI (selectivity index), PCV2: CC50/IC50; for IC50: Porcine circovirus 2, PK-15, 96 h, PK15 cells, 200 TCID50/well PCV2, after 4 days, read-out: PCV2 infection inhibition concentration IC50
Procedure: For the isolated DNA, using PCV2-specific primers (F-[…] , R-[…] ) and realtime RT-qPCR experimental method (95° C., 30 seconds 1 cycle, 95° C., 20 seconds, 56° C., 60 seconds 40 cycles), the antiviral efficacy of the materials was verified.

[10] = test system: NDV; assay: microbe, parasite or virus in culture; format: cell-based, Avian Newcastle Disease virus; details: for SI (selectivity index), NDV: CC50/IC50; for IC50: read-out: NDV infection inhibition concentration IC50
[11] = in vitro; details: monkey
[12] = test system: PEDV (G1a type, SM98 strain); assay: PEDV infection inhibition in Vero cells (PEDV detection kit on isolated RNA); format: cell-based, Porcine Epidemic Diarrhea virus; details: for SI (selectivity index), PEDV: CC50/IC50; for IC50: Porcine epidemic diarrhea virus, 48 h, Vero cells, 200 TCID50/ml PEDV, after 2 days, read-out: PEDV infection inhibition concentration IC50
Procedure: The next day, PEDV (G1a type, SM98 strain) of 200 TCID50/ml and inosine, xanthosine and guanosine in the dialdehyde and acyclic diol forms were treated to the cells simultaneously, and after 2 days, using commercialized Viral gene (DNA/RNA) extraction kit (iNtRON, 101410754), RNA was isolated. For the isolated RNA, using commercialized PEDV detection kit (Mediandiagnostics, NS-PED-31), the antiviral efficacy of the materials was verified.

[13] = test system: PRV; assay: microbe, parasite or virus in culture; format: cell-based, Porcine Rotavirus; details: for SI (selectivity index), PRV: CC50/IC50; for IC50: Rotavirus C, Vero, 72 h, read-out: PRV infection inhibition concentration IC50
[14] = test system: IBV; assay: microbe, parasite or virus in culture; format: cell-based, Avian Infectious Bronchitis virus; details: for IC50: read-out: IBV infection inhibition concentration IC50; for SI (selectivity index), IBV: CC50/IC50
[15] = Cytotoxicity, MDBK cell tests; details: bovine, MDBK cells
[16] = test system: CPV; assay: CPV infection inhibition in MDCK cells (qPCR); format: cell-based, Canine Parvovirus; details: for SI (selectivity index), CPV: CC50/IC50; for IC50: 96 h, MDCK cells, 200 TCID50/well CPV, after 4 days, read-out: CPV infection inhibition concentration IC50 (Table 10)
Procedure: For the isolated DNA, using CPV-specific primers (F-[…] , R-[…] ) and realtime RT-qPCR experimental method (95° C., 5 minutes 1 cycle, 95° C., 10 seconds, 60° C., 30 seconds, 40 cycles), the antiviral efficacy of the materials was confirmed.

[17] = test system: BVDV; assay: BVDV infection inhibition in MDBK cells (RT-qPCR); format: cell-based, Bovine Viral Diarrhea virus
Procedure: The next day, BVDV of 200 TCID50/well and inosine, xanthosine and guanosine in the dialdehyde and acyclic diol forms were treated to the cells simultaneously, and after 4 days, using commercialized Viral gene (DNA/RNA) extraction kit (iNtRON, 101410754), RNA was isolated.
For the isolated RNA, using BVDV-specific primers (F-[…] , R-[…] ) and realtime RT-qPCR experimental method (94° C., 10 minutes 1 cycle, 94° C., 10 seconds, 53° C., 20 seconds, 72° C., 30 seconds 35 cycles), the antiviral efficacy of the materials was verified.

[18] = test system: MDBK cell line; assay: Cytotoxicity, MDBK cell tests; details: read-out: CC50 (Table 9, BRV); cytotoxicity
[19] = avian paramyxovirus 1, Vero, 72 h

| Molecule | CC50 [1] | CC50 [2] | CC50 [3] | CC50 [4] | SI (selectivity index), SIV [5] | IC50 [5] | CC50 [6] | SI (selectivity index), BRV [7] | IC50 [7] | SI (selectivity index), PRRSV [8] | IC50 [8] | SI (selectivity index), PCV2 [9] | IC50 [9] | SI (selectivity index), NDV [10] | CC50 [11] | SI (selectivity index), PEDV [12] | IC50 [12] | SI (selectivity index), PRV [13] | IC50 [13] | CC50 [15] | other results |
| --- | --- | --- | --- | --- | --- | --- | --- | --- | --- | --- | --- | --- | --- | --- | --- | --- | --- | --- | --- | --- | --- |
| O=c1[nH]cnc2c1ncn2[C@@H](CO)OC(CO)CO [Acyclic diol-inosine, acyclic diol form of inosine] | > 10000 µM | > 10000 µM | > 10000 µM | > 10000 µM | >1.6 | 6190 µM | > 8000 µM | >5.2 | 1930 µM | >17.6 | 454 µM | >12.9 | 776 µM | >2.3 | > 10000 µM | >3.6 | 2770 µM | >3.5 | 2830 µM | > 10000 µM | IC50 [10, 19]: 4440 µM; IC50 ([14]; Avian coronavirus, Vero, 96 h): 2660 µM; SI (selectivity index), IBV [14]: >3.8; SI (selectivity index), CPV [16]: >4.6; IC50 ([16]; Canine parvovirus): 2190 µM |
| Nc1nc2c(ncn2[C@@H](CO)OC(CO)CO)c(=O)[nH]1 [Acyclic diol-guanosine, acyclic diol form of guanosine] |  | > 10000 µM | > 10000 µM | > 10000 µM | >2.1 | 4820 µM | > 8000 µM | >5.7 | 1760 µM | >17.5 | 458 µM | >4.3 | 2330 µM | >1.5 | > 10000 µM | >5.6 | 1780 µM | >2.9 | 3400 µM | > 10000 µM | IC50 [10, 19]: 6710 µM; IC50 ([14]; Avian coronavirus, Vero, 96 h): 1780 µM; SI (selectivity index), IBV [14]: >5.6; inhibition at 8000 µM ([16]; Canine parvovirus, MDCK, at 8000 μM, read-out: CPV infection inhibition efficacy): 18%; CPV virus titer reduction efficacy ([16]; at 8000 μM): ≥ 1 log10 |
| dialdehyde form of inosine [Dialdehyde-inosine] |  |  |  |  |  |  |  |  |  |  |  |  |  |  |  |  |  |  |  |  | IC50 ([10]; Vero cells, 200 TCID50/well NDV, after 3 days): 469 µM; IC50 ([14]; Vero cells, 200 TCID50/well IBV, after 4 days): 76.4 µM |
| O=c1[nH]c(=O)c2ncn([C@@H](CO)OC(CO)CO)c2[nH]1 [Acyclic diol-xanthosine, acyclic diol form of xanthosine] | > 10000 µM | > 10000 µM | > 10000 µM | > 10000 µM | >1.5 | 6690 µM | > 8000 µM | >6.4 | 1560 µM | >20 | 400 µM | >10.1 | 995 µM |  | > 10000 µM | >4.4 | 2300 µM | >2.9 | 3420 µM | > 10000 µM | inhibition at 8000 µM ([10]; avian paramyxovirus 1, Vero, read-out: NDV infection inhibition efficacy): 39.4%; SI (selectivity index), CPV [16]: >4.6; IC50 ([16]; Canine parvovirus): 2200 µM |
| O=C[C@@H](CO)O[C@H](C=O)n1cnc2c(=O)[nH]cnc21 [Dialdehyde-inosine, dialdehyde form of inosine] | > 10000 µM | > 10000 µM | > 10000 µM | > 10000 µM | >18.1 | 554 µM | > 10000 µM | >93.8 | 107 µM | >105.3 | 95 µM | >12.2 | 817 µM | >21.3 | > 10000 µM | >22.3 | 448 µM | >103.5 | 96.6 µM | > 10000 µM | IC50 [10, 19]: 469 µM; IC50 ([14]; Avian coronavirus, Vero, 96 h): 76.4 µM; SI (selectivity index), IBV [14]: >130; IC50 ([17]; Bovine viral diarrhea virus isolates and strains, 96 h, MDBK cells, 200 TCID50/well BVDV, after 4 days, read-out: BVDV infection inhibition concentration IC50): 110 µM; SI (selectivity index), BVDV ([17]; CC50/IC50): >90.8; CC50 [18]: > 10000 µM; SI (selectivity index), CPV [16]: >5.9; IC50 ([16]; Canine parvovirus): 1690 µM |
